Assay results taken from patent publication US12497393B2, “β-lactam compound, use thereof and preparation method therefor” (priority 2020, dated 2025).
Converted amounts (≈) assume the structure as drawn. Where two headings read alike, the source gives them in different places.

Key:
Assay in all cases: Antibacterial activity MIC assay (two-fold dilution agar plating)
Format in all cases: cell-based
Serratia marcescens = Serratia marcescens ATCC 21074
Procedure: (§1) Antibacterial Activity-Evaluating Method (MIC Assay)
(§2) In this study, the compounds of the present invention were tested for their antibacterial activities by using two-fold dilution agar plating method and Denley Multipoint Inoculator A400 according to the guidelines of the CLSI/NCCLS standard. The tested strains were amplified by hydrolyzed casein peptone (Mueller-Hinton Agar) broth and Brain and Heart Infusion. The strains used in this study were bacterial strains that were purchased from ATCC or clinically isolated in Chinese hospitals. Aztreonam, polymyxin or levofloxacin was used as positive control. The drugs were diluted with hydrolyzed casein peptone broth to the desired concentrations including 128.0, 64.0, 32.0, 16.0, 8.0, 4.0, 2.0, 1.0, 0.5, 0.25, 0.125, 0.06 and 0.03 μg/mL, and then placed respectively into each well and mixed thoroughly. After inoculation, the tested strains were incubated for 18 hours at a constant temperature of 35° C., and their growth levels were observed. The drug concentration with no microbial growth in the well was recorded as the lowest Minimal Inhibitory Concentration (MIC).

[1] = test system: Stenotrophomonas maltophilia; details: Stenotrophomonas maltophilia ATCC 13636
Procedure: as §1, §2

Salmonella typhi = test system: Salmonella typhi
Procedure: as §1, §2

Proteus vulgaris = test system: Proteus vulgaris
Procedure: as §1, §2

Klebsiella Pneumoniae = details: for MIC: Klebsiella pneumoniae, read-out: Minimal Inhibitory Concentration (MIC)
Procedure: as §1, §2

Enterobacter aerogenes = Enterobacter aerogenes ATCC 13048
Procedure: as §1, §2

Shigella flexneri = Shigella flexneri ATCC 12022
Procedure: as §1, §2

Providencia rettgeri = test system: Providencia rettgeri
Procedure: as §1, §2

Escherichia coli = details: for MIC: Escherichia coli, read-out: Minimal Inhibitory Concentration (MIC)
Procedure: as §1, §2

Pseudomonas aeruginosa = details: for MIC: read-out: Minimal Inhibitory Concentration (MIC)
Procedure: as §1, §2

Enterobacter cloacae = details: for MIC: read-out: Minimal Inhibitory Concentration (MIC)
Procedure: as §1, §2

Proteus mirabilis = test system: Proteus mirabilis
Procedure: as §1, §2

Citrobacter freundii = Citrobacter freundii ATCC 43864
Procedure: as §1, §2

Acinetobacter baumannii = details: for MIC: Acinetobacter baumannii, read-out: Minimal Inhibitory Concentration (MIC)
Procedure: as §1, §2

[2] = Klebsiella Pneumoniae 09-20, mcr-1(+)
[3] = Klebsiella Pneumoniae 16-2, ESBLs(−)
[4] = Klebsiella Pneumoniae 16-14, ESBLs(+)
[5] = Escherichia coli 08-85, mcr-1(+)
[6] = Escherichia coli 13-43, mcr-1(+)
[7] = Escherichia coli 13-66, mcr-1(+)
[8] = Escherichia coli 16-1, ESBLs(+)
[9] = Escherichia coli 16-7, ESBLs(−)
[10] = Escherichia coli CDC1001728, NDM-1(+)
[11] = Enterobacter cloacae CDC1000654

CC1(C)[C@H](NC(=O)/C(=N\OC2(C(=O)O)CCC2)c2csc(N)n2)C(=O)N1OS(=O)(=O)O [Compound A-2] was tested, and the MIC (Serratia marcescens; ATCC21074, read-out: Minimal Inhibitory Concentration (MIC)) was 0.25 µg/mL (≈ 0.524 µM), the MIC ([1]; ATCC13636, read-out: Minimal Inhibitory Concentration (MIC)) was 4 µg/mL (≈ 8.38 µM) and the MIC (Salmonella typhi; Salmonella enterica, TYPHI, read-out: Minimal Inhibitory Concentration (MIC)) was 0.12 µg/mL (≈ 0.251 µM). The MIC (Proteus vulgaris; Proteus vulgaris, ATCC29905, Proteus vulgaris ATCC 29905, read-out: Minimal Inhibitory Concentration (MIC)) was ≤ 0.03 µg/mL, the MIC (Klebsiella Pneumoniae; ATCC700603, Klebsiella Pneumoniae ATCC 700603, ESBLs(+)) was 1 µg/mL (≈ 2.09 µM) and the MIC (Klebsiella Pneumoniae; ATCCBAA2146, Klebsiella Pneumoniae ATCC BAA-2146, NDM-1(+)) was 0.25 µg/mL (≈ 0.524 µM). It also gave an MIC (Klebsiella Pneumoniae; [2]) of 0.12 µg/mL (≈ 0.251 µM), an MIC (Klebsiella Pneumoniae; [3]) of 2 µg/mL (≈ 4.19 µM) and an MIC (Klebsiella Pneumoniae; [4]) of 0.12 µg/mL (≈ 0.251 µM). The MIC (Klebsiella Pneumoniae; Klebsiella Pneumoniae 17-R27, CRE) was 0.25 µg/mL (≈ 0.524 µM), the MIC (Enterobacter aerogenes; Klebsiella aerogenes, ATCC13048, read-out: Minimal Inhibitory Concentration (MIC)) was 1 µg/mL (≈ 2.09 µM) and the MIC (Shigella flexneri; ATCC12022, read-out: Minimal Inhibitory Concentration (MIC)) was 0.25 µg/mL (≈ 0.524 µM). The MIC (Providencia rettgeri; Providencia rettgeri, ATCC31052, Providencia rettgeri ATCC 31052, read-out: Minimal Inhibitory Concentration (MIC)) was ≤ 0.03 µg/mL, the MIC (Escherichia coli; ATCC25922, Escherichia coli ATCC 25922, ESBLs(−)) was 0.12 µg/mL (≈ 0.251 µM) and the MIC (Escherichia coli; ATCC35218, Escherichia coli ATCC 35218, ESBLs(+)) was 0.06 µg/mL (≈ 0.126 µM). It also gave an MIC (Escherichia coli; [5]) of 0.12 µg/mL (≈ 0.251 µM), an MIC (Escherichia coli; [6]) of 0.12 µg/mL (≈ 0.251 µM) and an MIC (Escherichia coli; [7]) of 0.12 µg/mL (≈ 0.251 µM). It also gave an MIC (Escherichia coli; [8]) of 0.06 µg/mL (≈ 0.126 µM), an MIC (Escherichia coli; [9]) of 0.12 µg/mL (≈ 0.251 µM) and an MIC (Escherichia coli; Escherichia coli 17-R28, CRE, NDM-1(+)) of 16 µg/mL (≈ 33.5 µM). The MIC (Escherichia coli; [10]) was 0.5 µg/mL (≈ 1.05 µM), the MIC (Pseudomonas aeruginosa; ATCC27853, Pseudomonas aeruginosa ATCC 27853) was 4 µg/mL (≈ 8.38 µM) and the MIC (Pseudomonas aeruginosa; Pseudomonas aeruginosa 16-11) was 4 µg/mL (≈ 8.38 µM). The MIC (Pseudomonas aeruginosa; Pseudomonas aeruginosa PAO1) was 1 µg/mL (≈ 2.09 µM), the MIC (Enterobacter cloacae; ATCC43560, Enterobacter cloacae ATCC 43560) was 0.12 µg/mL (≈ 0.251 µM) and the MIC (Enterobacter cloacae; [11]) was 2 µg/mL (≈ 4.19 µM). For the same compound, the MIC (Proteus mirabilis; Proteus mirabilis, ATCC49565, Proteus mirabilis ATCC 49565, read-out: Minimal Inhibitory Concentration (MIC)) was ≤ 0.03 µg/mL, the MIC (Citrobacter freundii; ATCC43864, read-out: Minimal Inhibitory Concentration (MIC)) was 0.12 µg/mL (≈ 0.251 µM) and the MIC (Acinetobacter baumannii; ATCC19606, Acinetobacter baumannii ATCC 19606) was 16 µg/mL (≈ 33.5 µM). For the same compound, the MIC (Acinetobacter baumannii; Acinetobacter baumannii 16-16) was > 64 µg/mL and the MIC (Acinetobacter baumannii; Acinetobacter baumannii 16-33) was 16 µg/mL (≈ 33.5 µM).

For C#CCON=C(C(=O)NC1C(=O)N(OS(=O)(=O)O)C1(C)C)c1csc(N)n1 (centres unmarked) [Compound B-2], the “Minimal Inhibitory Concentration (MIC)” value (Serratia marcescens) was 0.5 µg/mL, the “Minimal Inhibitory Concentration (MIC)” value [1] was 32 µg/mL and the “Minimal Inhibitory Concentration (MIC)” value (Salmonella typhi; Salmonella typhi H901) was 0.5 µg/mL. For the same compound, the “Minimal Inhibitory Concentration (MIC)” value (Proteus vulgaris; Proteus vulgaris ATCC 29905) was ≤0.03 µg/mL, the “Minimal Inhibitory Concentration (MIC)” value (Klebsiella Pneumoniae; [2]) was 1 µg/mL and the “Minimal Inhibitory Concentration (MIC)” value (Klebsiella Pneumoniae; [3]) was 0.5 µg/mL. For the same compound, the “Minimal Inhibitory Concentration (MIC)” value (Klebsiella Pneumoniae; [4]) was 1 µg/mL, the “Minimal Inhibitory Concentration (MIC)” value (Klebsiella Pneumoniae; Klebsiella Pneumoniae ATCC 700603, ESBLs(+)) was 16 µg/mL and the “Minimal Inhibitory Concentration (MIC)” value (Klebsiella Pneumoniae; Klebsiella Pneumoniae ATCC BAA-2146, NDM-1(+)) was 8 µg/mL. The “Minimal Inhibitory Concentration (MIC)” value (Enterobacter aerogenes) was 1 µg/mL, the “Minimal Inhibitory Concentration (MIC)” value (Shigella flexneri) was 0.5 µg/mL and the “Minimal Inhibitory Concentration (MIC)” value (Providencia rettgeri; Providencia rettgeri ATCC 31052) was ≤0.03 µg/mL. For the same compound, the “Minimal Inhibitory Concentration (MIC)” value (Escherichia coli; [5]) was 0.5 µg/mL, the “Minimal Inhibitory Concentration (MIC)” value (Escherichia coli; [6]) was 1 µg/mL and the “Minimal Inhibitory Concentration (MIC)” value (Escherichia coli; [7]) was 1 µg/mL. The “Minimal Inhibitory Concentration (MIC)” value (Escherichia coli; [8]) was 0.25 µg/mL, the “Minimal Inhibitory Concentration (MIC)” value (Escherichia coli; [9]) was 0.5 µg/mL and the “Minimal Inhibitory Concentration (MIC)” value (Escherichia coli; Escherichia coli ATCC 25922, ESBLs(−)) was 0.5 µg/mL. The “Minimal Inhibitory Concentration (MIC)” value (Escherichia coli; Escherichia coli ATCC 35218, ESBLs(+)) was 0.25 µg/mL, the “Minimal Inhibitory Concentration (MIC)” value (Escherichia coli; [10]) was 4 µg/mL and the “Minimal Inhibitory Concentration (MIC)” value (Pseudomonas aeruginosa; Pseudomonas aeruginosa 16-11) was >64 µg/mL. The “Minimal Inhibitory Concentration (MIC)” value (Pseudomonas aeruginosa; Pseudomonas aeruginosa ATCC 27853) was >64 µg/mL, the “Minimal Inhibitory Concentration (MIC)” value (Pseudomonas aeruginosa; Pseudomonas aeruginosa PAO1) was 32 µg/mL and the “Minimal Inhibitory Concentration (MIC)” value (Enterobacter cloacae; Enterobacter cloacae ATCC 43560) was 0.5 µg/mL. For the same compound, the “Minimal Inhibitory Concentration (MIC)” value (Enterobacter cloacae; [11]) was 8 µg/mL, the “Minimal Inhibitory Concentration (MIC)” value (Proteus mirabilis; Proteus mirabilis ATCC 49565) was 0.06 µg/mL and the “Minimal Inhibitory Concentration (MIC)” value (Citrobacter freundii) was 0.5 µg/mL. For the same compound, the “Minimal Inhibitory Concentration (MIC)” value (Acinetobacter baumannii; Acinetobacter baumannii 16-16) was 32 µg/mL, the “Minimal Inhibitory Concentration (MIC)” value (Acinetobacter baumannii; Acinetobacter baumannii 16-33) was 4 µg/mL and the “Minimal Inhibitory Concentration (MIC)” value (Acinetobacter baumannii; Acinetobacter baumannii ATCC 19606) was 4 µg/mL.
